Results published in patent US9044437B2, “Method for treating alzheimer's disease using pharmacological chaperones to increase the activity of gangliosidases” (Amicus Therapeutics, Inc., priority 2009, dated 2015).
Read-outs that look alike come from different tables or passages of the source. Blank lines part the entries; values can stand above or below the compound they belong to.

Columns and labels:
Neu 1 [1] = biological target: T1, Neu 1 (Homo sapiens, UniProt Q99519); conditions: marked *: Values reported in the literature; cited from earlier work
sAPPα [2] = assay: sAPPα shedding by N2A mouse neuroblastomas (22C11 immunoblot of media); assay type: cell-based; conditions: 10 μM, 3 days
Procedure: (§1) The data shown in FIG. 4 was generated as follows. N2A mouse neuroblastomas were treated for 3 days either with no compound or with 10 μM AdDNJ, 10 μM NGT or 10 μM DGJ. The cells were scraped, harvested by centrifugation, and the cell pellet was solubilized using RIPA buffer (1% TX100, 0.5% Taurodeoxycholate, and 0.1% SDS in TBS plus protease inhibitors). The cell lysate was immunoblotted using a rabbit polyclonal antibody specific for HexB (Abcam). The levels of sAPPα were determined by immunoblotting a small fraction (30 μl) of the growth media using 22C11 antibody (Millipore).
(§2) FIG. 4A) Treatment of N2A mouse neuroblastomas with 10 μM NGT and AdDNJ increased cellular levels of wild-type β-Hex while deoxygalactonojirimycin (DGJ), a pharmacological chaperone for the lysosomal enzyme acid α-galactosidase, had no effect on β-Hex levels.

[3] = biological target: B-Hex (β-hexosaminidase, Hex A/B); assay: Comparative selectivity of pharmacological chaperones: B-Hex inhibition; assay type: biochemical; conditions: marked **: Values reported as Ki's; read-out: IC50 B-Hex, values reported as Ki's
wild-type β-Hex = biological target: T2, wild-type β-Hex (Mus musculus, UniProt P20060); assay: Cellular β-Hex levels in N2A mouse neuroblastomas (HexB immunoblot); assay type: cell-based; conditions: 10 μM, 3 days
T2 construct: increase in endogenous wild-type β-hexosaminidase levels and sAPPα shedding in N2A mouse neuroblastomas; endogenous in cells; host or cells: N2A mouse neuroblastoma cells
T2 sequence (P20060 32-536): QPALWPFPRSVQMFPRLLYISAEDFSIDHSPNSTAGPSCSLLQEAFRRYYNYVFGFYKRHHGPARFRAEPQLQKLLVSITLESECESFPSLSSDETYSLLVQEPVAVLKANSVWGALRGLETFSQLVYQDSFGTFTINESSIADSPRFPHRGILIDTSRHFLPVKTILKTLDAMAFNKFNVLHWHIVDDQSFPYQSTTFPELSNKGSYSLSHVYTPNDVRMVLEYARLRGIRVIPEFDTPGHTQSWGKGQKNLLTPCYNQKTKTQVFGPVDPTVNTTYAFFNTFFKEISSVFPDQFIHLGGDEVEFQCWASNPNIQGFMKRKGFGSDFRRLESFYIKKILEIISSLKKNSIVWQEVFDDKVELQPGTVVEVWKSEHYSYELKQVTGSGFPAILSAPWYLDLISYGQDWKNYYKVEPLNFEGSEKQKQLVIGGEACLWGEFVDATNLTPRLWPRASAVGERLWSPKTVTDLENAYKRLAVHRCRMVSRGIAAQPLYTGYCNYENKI
Procedure: as §1, §2

Neu 3 = biological target: T3, Neu 3 (Homo sapiens, UniProt Q9UQ49); conditions: marked *: Values reported in the literature; cited from earlier work
T3 sequence (Q9UQ49 1-428): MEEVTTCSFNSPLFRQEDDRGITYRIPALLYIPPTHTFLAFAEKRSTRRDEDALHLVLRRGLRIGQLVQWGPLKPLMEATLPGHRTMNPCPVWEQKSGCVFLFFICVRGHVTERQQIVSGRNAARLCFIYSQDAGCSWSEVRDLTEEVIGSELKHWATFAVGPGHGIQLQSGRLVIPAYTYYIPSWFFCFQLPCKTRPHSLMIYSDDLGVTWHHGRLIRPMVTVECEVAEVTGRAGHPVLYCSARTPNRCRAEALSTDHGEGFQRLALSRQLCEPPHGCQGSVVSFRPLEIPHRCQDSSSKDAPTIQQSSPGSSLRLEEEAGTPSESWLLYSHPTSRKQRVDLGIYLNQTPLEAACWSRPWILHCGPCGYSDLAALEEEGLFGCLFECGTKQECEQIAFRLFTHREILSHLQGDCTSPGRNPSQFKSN

[4] = biological target: T4, wild-type endogenous neuraminidase 1 (Homo sapiens, UniProt Q99519); assay: Neuraminidase 1 levels in fibroblasts derived from healthy individuals; assay type: cell-based; conditions: 5 days
T4 construct: selectively increases wild-type endogenous neuraminidase-1 levels in fibroblasts; endogenous in cells; host or cells: healthy control fibroblasts
Procedure: The data shown in FIG. 7 was generated as follows. Healthy control fibroblasts were treated for 5 days either with NB-DANA or IFG. The cells were scraped, harvested by centrifugation, and the cell pellet was solubilized using RIPA buffer (1% TX100, 0.5% Taurodeoxycholate, and 0.1% SDS in TBS plus protease inhibitors). The cell lysate was immunoblotted using a polyclonal antibody specific for Neu1 (Novus).
(A) The pharmacological chaperone NB-DANA increased wild-type endogenous neuraminidase 1 levels by up to 2 fold. […] Fibroblasts derived from healthy individuals were treated with NB-DANA or IFG for 5 days and enzyme activity was measured in cell lysates using the substrate NANA-4-MU. Enzyme activity was expressed as nmol of 4-MU generated per mg protein per hour.

sAPPα [5] = assay: sAPPα production by fibroblasts treated with NB-DGJ (6E10 immunoblot); assay type: cell-based, human; conditions: Sandhoff fibroblasts, 5 days treatment
Procedure: The data shown in FIG. 3 was generated as follows. A wild type(healthy) fibroblast cell line (CRL2076; Coriell) and a fibroblast cell line from a Sandhoff patient (GM11707; Coriell) were cultured overnight in DMEM (plus 10% FBS) growth medium, followed by an overnight incubation in serum free media. Secreted proteins were collected by TCA precipitation (12.5%) of the growth media and analyzed by immunoblotting using 6E10 antibody (Covance) to determine the levels of sAPPα. […] To measure levels of secreted Aβ40 in media, fibroblasts (CRL2076 & GM11707) were cultured overnight in DMEM (plus 10% FBS) growth medium (3 wells/sample; 1 ml media/well), followed by an overnight incubation in serum free media. The 3 wells/sample were combined and mixed with 0.3 ml methanol, 30 μl 10% TFA (Trifluoroacetic acid). The samples were pre-concentrated using a Sepak C18 column (Waters) and then used in an ELISA assay (Covance) to determine the levels of Aβ40. To determine the levels of full length APP, fibroblasts (CRL2076 & GM11707) were cultured overnight in DMEM (plus 10% FBS) growth medium. […] Secreted proteins were collected by TCA precipitation (12.5%) of the growth media and analyzed by immunoblotting using 6E10 antibody (Covance) to determine the levels of sAPPα. […]

Neu 4 = biological target: T5, Neu 4 (Homo sapiens, UniProt Q8WWR8); conditions: marked *: Values reported in the literature; cited from earlier work
T5 sequence (Q8WWR8 1-484): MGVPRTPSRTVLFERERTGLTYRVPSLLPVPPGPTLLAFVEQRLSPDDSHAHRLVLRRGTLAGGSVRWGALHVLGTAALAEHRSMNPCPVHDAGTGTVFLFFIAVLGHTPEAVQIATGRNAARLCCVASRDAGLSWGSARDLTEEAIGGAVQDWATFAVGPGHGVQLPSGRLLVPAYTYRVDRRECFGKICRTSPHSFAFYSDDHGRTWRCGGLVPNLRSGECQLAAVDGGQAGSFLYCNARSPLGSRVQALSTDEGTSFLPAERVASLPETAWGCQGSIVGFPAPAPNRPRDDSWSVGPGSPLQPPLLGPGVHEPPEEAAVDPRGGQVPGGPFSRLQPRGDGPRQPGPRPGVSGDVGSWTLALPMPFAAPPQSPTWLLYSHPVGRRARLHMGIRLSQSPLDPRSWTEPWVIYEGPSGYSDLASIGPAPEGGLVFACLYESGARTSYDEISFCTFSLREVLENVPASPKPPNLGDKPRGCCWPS

Neu 2 = Neu 2 (Homo sapiens, UniProt Q9Y3R4); conditions: marked *: Values reported in the literature; cited from earlier work
Neu 1 [6] = biological target: T1, Neu 1; assay: Comparative selectivity: Neu 1 inhibition; assay type: biochemical

Chain of Neu 2 (Q9Y3R4 whole entry): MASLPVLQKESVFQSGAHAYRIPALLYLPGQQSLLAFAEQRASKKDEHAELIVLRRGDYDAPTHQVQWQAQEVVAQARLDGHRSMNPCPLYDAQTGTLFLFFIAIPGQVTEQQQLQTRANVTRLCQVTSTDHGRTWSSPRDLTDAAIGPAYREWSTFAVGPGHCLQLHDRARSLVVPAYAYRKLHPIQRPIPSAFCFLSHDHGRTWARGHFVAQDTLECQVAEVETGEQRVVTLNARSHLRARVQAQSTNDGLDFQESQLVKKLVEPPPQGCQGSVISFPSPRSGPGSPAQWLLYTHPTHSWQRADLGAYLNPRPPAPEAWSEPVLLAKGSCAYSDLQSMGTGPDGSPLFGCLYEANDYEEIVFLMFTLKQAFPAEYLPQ

Compound: 5-(acetylamino)-4-[(aminoiminomethyl)-amino]-2,6-anhydro-3,4,5-trideoxy-D-glycero-D-galacto-non-2-enonic acid [Zanamivir]
IC50 (Neu 1 [1]): 2710 µM

Compound: CC(=O)N[C@H]1CN[C@H](CO)[C@@H](O)[C@@H]1O [AdDNJ, 2-acetamido-1,2-dideoxynojirimycin]
shedding of neurotrophic sAPPα (sAPPα [2]): increased
Ki [3]: 0.7 µM
cellular levels of wild-type β-Hex (wild-type β-Hex): increased

Compound: CC(=O)N[C@H]1[C@H]([C@H](O)[C@H](O)CO)OC(C(=O)O)=C[C@@H]1O [DANA, 2-deoxy-2,3-dehydro-N-acetylneuraminic acid]
IC50 (Neu 3): 61 µM

cellular levels of wild-type β-Hex (wild-type β-Hex): no effect
Compound: OC[C@H]1NC[C@H](O)[C@@H](O)[C@H]1O [DGJ, deoxygalactonojirimycin, reference compound]

Compound: OC[C@H]1CNC[C@@H](O)[C@@H]1O [IFG, isofagomine, reference compound]
effect on wild-type neuraminidase 1 levels [4]: does not increase

Compound: CCCCN1C[C@H](O)[C@@H](O)[C@@H](O)[C@H]1CO [N-butyl-deoxygalactonojirimycin]
increase in production of sAPPα (sAPPα [5]): 35-40%

Compound: CCCCOC(=O)C1=C[C@H](O)[C@@H](NC(C)=O)[C@H]([C@H](O)[C@H](O)CO)O1 [NB-DANA, n-butyl-2-deoxy-2,3-dehydro-N-acetylneuraminic acid]
IC50 (Neu 4): > 1000 µM
IC50 (Neu 2): > 1000 µM
IC50 (Neu 1 [6]): 10 µM
increase of wild-type endogenous neuraminidase 1 levels [4]: up to 2 fold
IC50 (Neu 3): > 1000 µM

Compound: CC(=O)N[C@H]1[C@H]([C@H](O)[C@H](O)CO)OC(C(=O)Oc2ccccc2)=C[C@@H]1O [Phenyl DANA, Phenyl 2-deoxy-2,3-dehydro-N-acetylneuraminic acid, reference compound]
IC50 (Neu 4): 810 µM
IC50 (Neu 2): 865 µM
IC50 (Neu 1 [1]): 13 µM
IC50 (Neu 3): 320 µM
